Source: ChEMBL document CHEMBL1201862, “PubChem BioAssay data set” (2004)
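In this assay, cells in 96-well plates receive the compound at five concentrations for 48 hours. Endpoints are linearly interpolated between the surrounding concentrations. GI50 marks 50% less growth.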 Calls of active or inactive are those of the source. Rule as the data show it: active = GI50 up to about 1.1 µM and inactive = higher.

How the values were obtained:
Experiment in all cases: inhibition of tumour cell growth, NCI panel, 48 h
IGROV-1 = tested on: IGROV-1
SNB-75 = tested on: SNB-75
NCI/ADR-RES = tested on: NCI/ADR-RES
MDA-N = tested on: MDA-N
EKVX = tested on: EKVX
SW-620 = tested on: SW-620
T47D = tested on: T47D
OVCAR-4 = tested on: OVCAR-4
COLO 205 = tested on: COLO 205
TK-10 = tested on: TK-10
MDA-MB-231 = tested on: MDA-MB-231
MDA-MB-435 = tested on: MDA-MB-435
KM12 = tested on: KM12
DU-145 = tested on: DU-145
PC-3 = tested on: PC-3
OVCAR-8 = tested on: OVCAR-8
LOX IMVI = tested on: LOX IMVI
U-251 = tested on: U-251
HCT-116 = tested on: HCT-116
OVCAR-3 = tested on: OVCAR-3

SMILES: CC1=NN(c2ccccc2)C(=O)C1/N=N/c1ccc(S(N)(=O)=O)cc1 (stereo not given)
- GI50 (IGROV-1): > 100 µM (inactive)
- GI50 (SNB-75): > 100 µM (inactive)
- GI50 (NCI/ADR-RES): > 100 µM (inactive)
- GI50 (MDA-N): > 100 µM (inactive)
- GI50 (EKVX): > 100 µM (inactive)
- GI50 (SW-620): > 100 µM (inactive)
- GI50 (T47D): > 100 µM (inactive)
- GI50 (OVCAR-4): > 100 µM (inactive)
- GI50 (COLO 205): > 100 µM (inactive)
- GI50 (TK-10): > 100 µM (inactive)
- GI50 (MDA-MB-231): > 100 µM (inactive)
- GI50 (MDA-MB-435): > 100 µM (inactive)
- GI50 (KM12): > 100 µM (inactive)
- GI50 (DU-145): > 100 µM (inactive)
- GI50 (PC-3): > 100 µM (inactive)
- GI50 (OVCAR-8): > 100 µM (inactive)
- GI50 (LOX IMVI): > 100 µM (inactive)
- GI50 (U-251): > 100 µM (inactive)
- GI50 (HCT-116): > 100 µM (inactive)
- GI50 (OVCAR-3): > 100 µM (inactive)

SMILES: Cc1ccsc1/C=N/Nc1cc(C)c2ccccc2n1
- GI50 (IGROV-1): 1.36 µM (inactive)
- GI50 (SNB-75): 13.8 µM (inactive)
- GI50 (NCI/ADR-RES): 13.9 µM (inactive)
- GI50 (MDA-N): 14.5 µM (inactive)
- GI50 (EKVX): 6.82 µM (inactive)
- GI50 (SW-620): 17.2 µM (inactive)
- GI50 (T47D): 17.8 µM (inactive)
- GI50 (OVCAR-4): 14.6 µM (inactive)
- GI50 (COLO 205): 5.92 µM (inactive)
- GI50 (TK-10): 14.7 µM (inactive)
- GI50 (MDA-MB-231): 0.637 µM (active)
- GI50 (MDA-MB-435): 14 µM (inactive)
- GI50 (KM12): 15.6 µM (inactive)
- GI50 (DU-145): 12.6 µM (inactive)
- GI50 (PC-3): 14.7 µM (inactive)
- GI50 (OVCAR-8): 14.7 µM (inactive)
- GI50 (LOX IMVI): 12 µM (inactive)
- GI50 (U-251): 14 µM (inactive)
- GI50 (HCT-116): 12.1 µM (inactive)
- GI50 (OVCAR-3): 3.94 µM (inactive)
